row,melting point,Compound
1,240 to 242 °C,Cc1cc(C)c(Nc2nc(C)ncc2S(=O)(=O)c2ccc(C3=NCCN3)cc2)c(C)c1
2,202 to 203 °C,CCC1NC(=O)N(C)C(=O)N1
3,123 to 124 °C,C=C(CN(C)C)c1ccc(NC(=O)NC)cc1
4,172 to 173 °C,CC(C)(C)C(=O)Nc1ccc(F)cc1C1(O)CCN(C/C=C/c2ccc(Cl)cc2)CC1
5,167 to 173 °C,CN(Cc1ccc(CCC(=O)Nc2ccc(-c3ccc(Cl)cc3)cc2)cc1)C1CCOCC1
6,119 to 120 °C,O=C(O)C(=O)c1ccc(OCCOC2CCc3ccccc3C2)cc1 (configuration not stated)
7,67 to 69 °C,CCOC(=O)C(NC(=O)c1ccc(OC)cc1)C(C)=O (configuration not stated)
8,84 to 85 °C,CC(C)(C=O)NC(=O)OC(C)(C)C
9,142 to 144 °C,CC1C2C(C(=O)N1Cc1ccc3c(c1)OCO3)C(c1ccc(Br)cc1)N(C)C2(C)C (configuration not stated)
10,226 to 228 °C,NC(=O)CN1CCN(c2ccc(NC(=O)c3ccccc3-c3ccc(C(F)(F)F)cc3)cc2)CC1
11,105 to 106 °C,CSC(=Nc1ccccc1)Nc1ccccc1
12,256 to 258 °C,COc1ccc(C(=O)NNC(=O)c2ccc([N+](=O)[O-])cc2)cc1
13,78 to 84 °C,Cc1ccnn1-c1c(Cl)cc(C(F)(F)F)cc1Cl
14,208 to 211 °C,Cc1cc(O)nn1-c1ccc(Cl)c(Cl)c1
15,253 °C,Nc1ncnc2c1cnn2C1OC(CO)C(O)C1O (configuration not stated)
16,175 to 177 °C,COCC1COc2cc3ncnc(Nc4cccc(I)c4)c3cc2O1 (configuration not stated)
17,196 °C,CC(C)(C)NC(=O)NCC#CCNC(=O)Nc1nc2c(s1)-c1c(cnn1-c1ccccc1)CC2

row,melting point,Compound
1,90 to 92 °C,COC(C)(C)O[C@@H]1C(=O)N(C(=O)OC(C)(C)C)[C@@H]1c1ccccc1 (relative stereo)
2,58 to 60 °C,COc1cccc(N2CCN(CCC(O)COc3ccccc3)CC2)c1 (configuration not stated)
3,149 to 150 °C,CC1(C)COc2ccc(C[C@@H](NC(=O)c3cccc4c3C=CCCC4)[C@@H](O)c3cccc(Cl)c3)cc21 (racemic)
4,168 to 170 °C,CCOC(=O)c1cc2c(OC)cccc2[nH]1
5,100 to 103 °C,COc1ccc(/C=C(\C#N)c2ccccc2Br)cc1OC1CCCC1
6,139 to 141 °C,CSc1cc(Cl)ccc1C(=O)CC#N
7,163 to 165 °C,COc1cc2c(cc1O)C(Cc1c(OC)cccc1[N+](=O)[O-])N(C)CC2 (configuration not stated)
8,75 °C,CCOC(=O)C(C)=Cc1ccc([N+](=O)[O-])cc1
9,80 °C,CCOC(OCC)c1ccc(C(O)(c2ccc3nc(OC)cc(-c4cccc(Cl)c4)c3c2)c2cncn2C)cc1 (configuration not stated)
10,82 to 84 °C,C/C(=N\OC(=O)[C@@H](NC(=O)OC(C)(C)C)C(C)C)[C@H]1CC[C@H]2[C@@H]3CCC4=CC(=O)CC[C@]4(C)[C@H]3CC[C@]12C
11,162 to 163 °C,COc1cc(Cc2cnc(NC(=O)C(C)(C)C)nc2NC(=O)C(C)(C)C)c(C=O)c(OC)c1OC
12,347 to 349 °C,Cc1ccccc1C=C1CCn2c1nc1ccc(C(N)=O)cc1c2=O
13,127 to 129 °C,FC(F)(F)c1ccc2nc(-c3ccccc3)oc2n1
14,170 to 173 °C,Cc1ccc2sc3cc(C(C)(C)[N+](=O)[O-])ccc3c(=O)c2c1
15,132 to 134 °C,CCCc1cn(C)c2c(=O)[nH]c(-c3cc(S(=O)(=O)N4CCN(CCCOC(=O)[C@@H](NC(=O)OC(C)(C)C)C(C)C)CC4)ccc3OCC)nc12
16,53 to 54 °C,Cc1noc(CCCCCCCOc2ccc(C3=NCCO3)cc2Cl)c1CO
17,156 to 158 °C,CCC(CC)c1ccc(Cl)c2nc3n(c12)CCCCN3c1cccc2c1OC(F)(F)O2

# The remaining lines, values behind:
row,Compound,melting point
1,O=C(Nc1ccc(C(F)(F)F)cc1)N1CCC(c2ccccc2)C(c2ccccc2)=N1 (configuration not stated),171 to 173 °C
2,COc1ccc(/C(=C/C(=O)O)c2cc(F)cc(F)c2)cc1,170 to 172 °C
3,O=C(NC1CCN(CCc2ccccc2)CC1)C1=Cc2cnc3cccc(n23)S1,216 to 217 °C
4,CCCOc1ccc(CN2CCC(C(N)=O)CC2)cc1,142 to 146 °C
5,Nc1cc(=O)nc(Nc2ccccc2)n1-c1ccccc1,202 to 206 °C
6,O=C(Nc1cccc(S(=O)(=O)CCO)c1)c1cnn2c(C(F)F)cc(-c3ccc(C(F)(F)F)cc3)nc12,205 °C
7,CC(C)c1cccc(C(C)C)c1NC(=O)NCC1(c2ccccc2)CCCCC1,168 to 169 °C
8,COc1ccccc1Oc1c(O)nc(-c2cccc(OCc3ccccc3)c2)nc1O,192 to 195 °C
9,c1ccc2c(c1)CCN2Nc1ccncc1,125 to 126 °C
10,CNc1nc(Nc2ccc(Cl)c(CNS(C)(=O)=O)c2)ncc1[N+](=O)[O-],250 °C
11,O=C(O)c1ccc(Cl)cc1Nc1cccc(Br)c1,205 to 207 °C
12,O=C(O)C=CC(=O)c1ccc(Oc2cccc(Cl)c2)cc1,110 to 111 °C
13,COC1=C(OC)C(=O)C(CCCCCCCCCCCCOC(C)=O)=C(C)C1=O,47 °C
14,O=C(O)CCNC(=O)C=Cc1ccccc1,140 to 144 °C
15,CC(C)=CCN(CCC12CC3CC(CC(C3)C1)C2)C(=O)NCCCc1ccncc1,93 to 96 °C
16,COC(=O)C(=CNc1ccc(F)c(F)c1OCC(C)O)C(=O)OC (configuration not stated),107 to 108 °C
17,N#CC1(N2CCN(c3ccccc3)CC2)CCCCC1,133 to 135 °C
18,CC1(C)C(=O)N(C(=O)NCC2CCN(CC3(C(=O)O)CCC3)CC2)c2cc(F)ccc21,193 °C
19,O=C1OCCC1=Cc1ccccc1OCC(O)CN1CCC(c2ccc3ccccc3c2)CC1 (configuration not stated),127 to 128 °C

row,Compound,melting point
1,CCC1(C)C(=O)c2c(cc(OC)c(Cl)c2Cl)C1c1ccccc1 (configuration not stated),132 °C
2,Cc1c(C)n(CC=CCl)c2c(OCc3ccc(F)cc3)nncc12,110 to 115 °C
3,Cc1ncn(-c2ccc(N3C[C@H](CO)OC3=O)cc2F)n1,190 to 192 °C
4,COC(=O)c1ccc(CN2CCN(S(=O)(=O)c3ccccc3)CC2)cc1,145 to 146 °C
5,COC(=O)CCC(=O)c1ccc(-c2ccc(Cl)cc2)o1,99 to 100 °C
6,CC(=O)Oc1c(C)nc(N(C)C)nc1-c1ccccc1,126 to 128 °C
7,CCCc1ncc(/C=C2\C(=O)N(CC(=O)OC)c3cccc(C)c32)n1Cc1ccc(C(=O)OC)cc1,228 to 230 °C
8,Cc1cnc(CNC(=O)c2sc(N3CCN(CC4CC4)C3=O)nc2C)cn1,161 to 163 °C
9,CCOCc1nc2c(N)nc3cc(OCc4ccccc4)ccc3c2n1CCCCN1CCCS1(=O)=O,225 to 227 °C
10,COc1ccc(-c2cn3ccccc3n2)cc1OC,96 °C
11,COc1ccc2c(ccn2-c2cccc(C#N)c2)c1,113 to 115 °C
12,O=C1CCN(Cc2cccnc2)CC1C(c1ccccc1)c1ccccc1 (configuration not stated),121 to 122 °C
13,CC(C)(C)c1ccc2oc(C(=O)CBr)cc2c1,100 to 102 °C
14,N#Cc1c2ccccc2c(C=O)c2ccccc12,270 to 275 °C
15,OCc1ccnc(Nc2ncc(-c3ccccc3)s2)c1,236 to 237 °C
16,NS(=O)(=O)c1cc(C(=O)OC[C@@H]2CCCN2N=O)c(NCc2ccco2)cc1Cl,79 to 81 °C
17,COC(=O)c1cc2c(Cl)cccc2s1,84 to 86 °C
18,CC(C)(C)OC(=O)Nc1ccc(OCc2ccccc2)c(C(=O)O)c1,136 to 139 °C
19,CCOC(=O)c1cc(NC(=O)C2=C(CC)OCCS2)ccc1Cl,86 to 88 °C

# From a melting point compilation (Tetko et al.; mined from patent text by program, amines drawn as free bases though some values may be those of a salt)
